In patent US20070117743A1, “New antitumoral compounds” (priority 2003, published 2007):
Where two headings read alike, the source gives them in different places. Where a SMILES comes first, the peptide text is derived from it. Bridges are numbered along the chain shown (N, C = ends). [ ]: non-standard residue; d: D form. The star is where a group is joined. d(aIle) = CC[C@H](C)[C@@H](N)C(=O)O; d(aThr) = C[C@@H](O)[C@@H](N)C(=O)O; hCha = N[C@@H](CCC1CCCCC1)C(=O)O; Hexanoyl(5-Me) = CC(C)CCCC(=O)*; Orn = NCCC[C@H](N)C(=O)O; Dhb = C/C=C(\N)C(=O)O

Legend:
Format in all cases: cell-based, human
SK-BR-3 = experiment: SRB colorimetric assay of cell growth and viability, SK-BR-3; settings: 48 hours exposure
K-562 = experiment: SRB colorimetric assay of cell growth and viability, K-562; settings: 48 hours exposure; for CC50: read-out: LC50 K-562
LNCaP = experiment: SRB colorimetric assay of cell growth and viability, LNCaP; settings: 48 hours exposure; for CC50: read-out: LC50 LN-caP
SK-MEL-28 = experiment: SRB colorimetric assay of cell growth and viability, SK-MEL-28; settings: 48 hours exposure; for CC50: read-out: LC50 MEL-28
IGROV-ET = experiment: SRB colorimetric assay of cell growth and viability, IGROV-ET; settings: 48 hours exposure; for CC50: read-out: LC50 IGROV-ET
PANC-1 = experiment: SRB colorimetric assay of cell growth and viability, PANC-1; settings: 48 hours exposure; for CC50: read-out: LC50 PANC-1
LoVo = experiment: SRB colorimetric assay of cell growth and viability, LoVo; settings: 48 hours exposure; for CC50: read-out: LC50 LOVO
HeLa-APL = experiment: SRB colorimetric assay of cell growth and viability, HeLa-APL; settings: 48 hours exposure; for CC50: read-out: LC50 HELA-APL
LoVo-Dox = experiment: SRB colorimetric assay of cell growth and viability, LoVo-Dox; settings: 48 hours exposure; for CC50: read-out: LC50 LOVO-DOX
In short: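 SRB staining (0.4% wt/vol in 1% acetic acid, 10 min, room temperature) of cells fixed with 50% TCA follows a 48-hour exposure to compound. Plating density is 5×10^3 cells/well, and the OD is taken at 490 nm.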

HeLa = experiment: SRB colorimetric assay of cell growth and viability, HeLa; settings: 48 hours exposure; for CC50: read-out: LC50 HELA
DU-145 = experiment: SRB colorimetric assay of cell growth and viability, DU-145; settings: 48 hours exposure
HT-29 = experiment: SRB colorimetric assay of cell growth and viability, HT-29; settings: 48 hours exposure; for GI50: read-out: GI50 HT-29; for CC50: read-out: LC50 HT-29
A-549 = experiment: SRB colorimetric assay of cell growth and viability, A-549; settings: 48 hours exposure; for GI50: read-out: GI50 A-549; for CC50: read-out: LC50 A-549
IGROV-1 = experiment: SRB colorimetric assay of cell growth and viability, IGROV-1; settings: 48 hours exposure

C/C=C1\NC(=O)[C@H](Cc2ccccc2)NC(=O)[C@@H](C(C)C)NC(=O)[C@@H]([C@@H](C)CC)NC(=O)[C@H](NC(=O)[C@H](NC(=O)[C@H](CCCCN)NC(=O)[C@H]2CCCN2C(=O)[C@H](NC(=O)[C@@H](NC(=O)[C@@H](NC(=O)[C@H](NC(=O)CC[C@@H](C)CC)C(C)C)[C@@H](C)O)C(C)C)C(C)C)[C@@H](C)CC)[C@@H](C)OC(=O)[C@H](C(C)C)NC1=O [Compound 30, [Lys^8, (4S)-MeHex^14]-KF]
GI50 (SK-BR-3): 159 nM | LC50 (SK-BR-3): 579 nM | TGI SK-BR-3 (SK-BR-3): 3.04E−07 Molar | GI50 (K-562): 1020 nM | TGI K-562 (K-562): 2.28E−06 Molar | CC50 (K-562): 5070 nM | TGI LN-caP (LNCaP): 1.72E−06 Molar | GI50 (LNCaP; read-out: GI50 LN-caP): 804 nM | CC50 (LNCaP): 3680 nM | GI50 (SK-MEL-28): 1190 nM | TGI MEL-28 (SK-MEL-28): 2.39E−06 Molar | CC50 (SK-MEL-28): 4780 nM | GI50 (IGROV-ET): 192 nM | TGI IGROV-ET (IGROV-ET): 3.50E−07 Molar | CC50 (IGROV-ET): 637 nM | GI50 (PANC-1): 2170 nM | TGI PANC-1 (PANC-1): 5.28E−06 Molar | CC50 (PANC-1): 6700 nM | GI50 (LoVo): 135 nM | TGI LOVO (LoVo): 2.45E−07 Molar | CC50 (LoVo): 444 nM | GI50 (HeLa-APL): 677 nM | TGI HELA-APL (HeLa-APL): 1.76E−06 Molar | CC50 (HeLa-APL): 4580 nM | GI50 (LoVo-Dox): 164 nM | TGI LOVO-DOX (LoVo-Dox): 3.24E−07 Molar | CC50 (LoVo-Dox): 639 nM | GI50 (HeLa): 212 nM | TGI HELA (HeLa): 5.42E−07 Molar | CC50 (HeLa): 2470 nM | GI50 (DU-145): 329 nM | LC50 (concentration causing 50% net cell kill) (DU-145): 4200 nM | TGI DU-145 (DU-145): 1.15E−06 Molar | TGI HT-29 (HT-29): 2.99E−07 Molar | GI50 (HT-29): 173 nM | CC50 (HT-29): 517 nM | TGI A-549 (A-549): 2.24E−06 Molar | GI50 (A-549): 1040 nM | CC50 (A-549): 4810 nM | GI50 (IGROV-1): 205 nM | LC50 (concentration causing 50% net cell killing) (IGROV-1): 1090 nM | TGI IGROV (IGROV-1): 3.87E−07 Molar

C/C=C1\NC(=O)[C@H](Cc2ccccc2Cl)NC(=O)[C@@H](C(C)C)NC(=O)[C@@H]([C@@H](C)CC)NC(=O)[C@H](NC(=O)[C@H](NC(=O)[C@H](CCCN)NC(=O)[C@H]2CCCN2C(=O)[C@H](NC(=O)[C@@H](NC(=O)[C@@H](NC(=O)[C@H](NC(=O)CCCC(C)C)C(C)C)[C@@H](C)O)C(C)C)C(C)C)[C@@H](C)CC)[C@@H](C)OC(=O)[C@H](C(C)C)NC1=O [Compound 81, [Phe(2-Cl)^3]-KF]
GI50 (SK-BR-3; SK-BR-3): 61.2 nM | LC50 (SK-BR-3; SK-BR-3): 664 nM | TGI SK-BR-3 (SK-BR-3; SK-BR-3): 1.18E−07 Molar | GI50 (K-562; K-562): 1840 nM | TGI K-562 (K-562; K-562): 1.84E−06 Molar | CC50 (K-562; K-562): 1840 nM | GI50 (LNCaP; LN-caP): 75.6 nM | TGI LN-caP (LNCaP; LN-caP): 3.87E−07 Molar | CC50 (LNCaP; LN-caP): 1270 nM | GI50 (SK-MEL-28; MEL-28): 362 nM | TGI MEL-28 (SK-MEL-28; MEL-28): 8.73E−07 Molar | CC50 (SK-MEL-28; MEL-28): 1680 nM | GI50 (IGROV-ET; IGROV-ET): 100 nM | TGI IGROV-ET (IGROV-ET; IGROV-ET): 2.40E−07 Molar | CC50 (IGROV-ET; IGROV-ET): 639 nM | GI50 (PANC-1; PANC-1): 1400 nM | TGI PANC-1 (PANC-1; PANC-1): 1.84E−06 Molar | CC50 (PANC-1; PANC-1): 1840 nM | GI50 (LoVo; LOVO): 89.2 nM | TGI LOVO (LoVo; LOVO): 1.72E−07 Molar | CC50 (LoVo; LOVO): 445 nM | GI50 (HeLa-APL; HELA-APL): 342 nM | TGI HELA-APL (HeLa-APL; HELA-APL): 7.87E−07 Molar | CC50 (HeLa-APL; HELA-APL): 1840 nM | GI50 (LoVo-Dox; LOVO-DOX): 70.1 nM | TGI LOVO-DOX (LoVo-Dox; LOVO-DOX): 1.20E−07 Molar | CC50 (LoVo-Dox; LOVO-DOX): 369 nM | GI50 (HeLa; HELA): 199 nM | TGI HELA (HeLa; HELA): 6.33E−07 Molar | CC50 (HeLa; HELA): 1440 nM | GI50 (DU-145; DU-145): 242 nM | LC50 (concentration causing 50% net cell kill) (DU-145; DU-145): 1210 nM | TGI DU-145 (DU-145; DU-145): 6.83E−07 Molar | TGI HT-29 (HT-29; HT-29): 2.23E−07 Molar | GI50 (HT-29; HT-29): 102 nM | CC50 (HT-29; HT-29): 543 nM | TGI A-549 (A-549; A-549): 9.04E−07 Molar | GI50 (A-549; A-549): 457 nM | CC50 (A-549; A-549): 1570 nM | GI50 (IGROV-1; IGROV): 86.7 nM | LC50 (concentration causing 50% net cell killing) (IGROV-1; IGROV): 596 nM | TGI IGROV (IGROV-1; IGROV): 2.09E−07 Molar

C/C=C1\NC(=O)[C@H](CCC2CCCCC2)NC(=O)[C@@H](C(C)C)NC(=O)[C@@H]([C@@H](C)CC)NC(=O)[C@H](NC(=O)[C@H](NC(=O)[C@H](CCCN)NC(=O)[C@H]2CCCN2C(=O)[C@H](NC(=O)[C@@H](NC(=O)[C@@H](NC(=O)[C@H](NC(=O)CCCC(C)C)C(C)C)[C@@H](C)O)C(C)C)C(C)C)[C@@H](C)CC)[C@@H](C)OC(=O)[C@H](C(C)C)NC1=O [Compound 63, 5-MeHex-D-Val-Thr-Val-D-Val-D-Pro-Orn-D-allo-Ile-cyclo[D-allo-Thr-D-alo-Ile-D-Val-hCh-(Z)-Dhb-Val]] ({Hexanoyl(5-Me)}-[dV]TV[dV][dP][Orn][d(aIle)][d(aThr)][d(aIle)][dV][hCha][Dhb]V; ester 8-C)
GI50 (SK-BR-3; SRB): 74.8 nM | LC50 (SK-BR-3; SRB): 465 nM | TGI SK-BR-3 (SK-BR-3; SRB): 1.86E−07 Molar | GI50 (K-562; K-562): 1480 nM | TGI K-562 (K-562; K-562): 2.63E−06 Molar | CC50 (K-562; K-562): 4690 nM | TGI LN-caP (LNCaP; SRB): 1.21E−06 Molar | GI50 (LNCaP; SRB, read-out: GI50 LN-caP): 336 nM | CC50 (LNCaP; SRB): 2850 nM | GI50 (SK-MEL-28; SRB): 828 nM | TGI MEL-28 (SK-MEL-28; SRB): 1.77E−06 Molar | CC50 (SK-MEL-28; SRB): 3790 nM | GI50 (IGROV-ET; SRB): 76.1 nM | TGI IGROV-ET (IGROV-ET; SRB): 2.01E−07 Molar | CC50 (IGROV-ET; SRB): 529 nM | GI50 (PANC-1; PANC-1): 1050 nM | TGI PANC-1 (PANC-1; PANC-1): 2.10E−06 Molar | CC50 (PANC-1; PANC-1): 4210 nM | GI50 (LoVo; LOVO): 122 nM | TGI LOVO (LoVo; LOVO): 2.40E−07 Molar | CC50 (LoVo; LOVO): 469 nM | GI50 (HeLa-APL; HELA-APL): 292 nM | TGI HELA-APL (HeLa-APL; HELA-APL): 1.09E−06 Molar | CC50 (HeLa-APL; HELA-APL): 3230 nM | GI50 (LoVo-Dox; LOVO-DOX): 130 nM | TGI LOVO-DOX (LoVo-Dox; LOVO-DOX): 2.56E−07 Molar | CC50 (LoVo-Dox; LOVO-DOX): 502 nM | GI50 (HeLa; HELA): 175 nM | TGI HELA (HeLa; HELA): 4.99E−07 Molar | CC50 (HeLa; HELA): 2060 nM | GI50 (DU-145; SRB): 119 nM | LC50 (concentration causing 50% net cell kill) (DU-145; SRB): 1550 nM | TGI DU-145 (DU-145; SRB): 4.25E−07 Molar | TGI HT-29 (HT-29; HT-29): 3.22E−07 Molar | GI50 (HT-29; HT-29): 132 nM | CC50 (HT-29; HT-29): 1130 nM | TGI A-549 (A-549; A-549): 1.60E−06 Molar | GI50 (A-549; A-549): 728 nM | CC50 (A-549; A-549): 3480 nM | GI50 (IGROV-1; SRB): 128 nM | LC50 (concentration causing 50% net cell killing) (IGROV-1; SRB): 2000 nM | TGI IGROV (IGROV-1; SRB): 4.29E−07 Molar
